From the NIST ThermoML archive (doi:10.1016/j.fluid.2010.07.011)

Test: xn = mol fraction of the nth substance listed
Details: 101.33 kPa, Liquid, Vibrating tube method

CCCCCCN [1-hexanamine] + CCCCO
mass density [kg/m3]
Details | 288.15 K | 293.15 K | 298.15 K | 303.15 K | 308.15 K | 313.15 K | 318.15 K | 323.15 K
x2 = 0 | 768.637 | 764.385 | 760.128 | 755.856 | 751.573 | 747.276 | 742.962 | 738.636
x2 = 0.0503 | 771.284 | 767.06 | 762.826 | 758.576 | 754.314 | 750.035 | 745.737 | 741.427
x2 = 0.1108 | 774.579 | 770.381 | 766.172 | 761.947 | 757.705 | 753.444 | 749.165 | 744.868
x2 = 0.1615 | 777.172 | 772.994 | 768.799 | 764.593 | 760.366 | 756.118 | 751.85 | 747.565
x2 = 0.2004 | 779.327 | 775.161 | 770.98 | 766.783 | 762.567 | 758.331 | 754.072 | 749.795
x2 = 0.2455 | 781.707 | 777.556 | 773.386 | 769.201 | 764.996 | 760.77 | 756.52 | 752.247
x2 = 0.3004 | 784.53 | 780.391 | 776.235 | 772.062 | 767.867 | 763.651 | 759.41 | 755.147
x2 = 0.4 | 789.735 | 785.619 | 781.483 | 777.33 | 773.155 | 768.956 | 764.732 | 760.481
x2 = 0.4802 | 793.847 | 789.75 | 785.637 | 781.501 | 777.345 | 773.162 | 768.953 | 764.717
x2 = 0.6294 | 800.788 | 796.75 | 792.692 | 788.612 | 784.508 | 780.377 | 776.215 | 772.02
x2 = 0.6999 | 803.655 | 799.656 | 795.637 | 791.594 | 787.526 | 783.429 | 779.299 | 775.138
x2 = 0.75 | 805.487 | 801.517 | 797.53 | 793.517 | 789.481 | 785.41 | 781.306 | 777.172
x2 = 0.7997 | 807.332 | 803.397 | 799.441 | 795.46 | 791.45 | 787.411 | 783.336 | 779.228
x2 = 0.8495 | 808.927 | 805.024 | 801.1 | 797.154 | 793.178 | 789.169 | 785.123 | 781.043
x2 = 0.8994 | 810.567 | 806.697 | 802.808 | 798.893 | 794.95 | 790.973 | 786.956 | 782.9
x2 = 0.9504 | 812.092 | 808.261 | 804.406 | 800.528 | 796.618 | 792.674 | 788.687 | 784.663

CCCCO [butan-1-ol] + CCCCCCN
x1 = 1
Details | mass density [kg/m3]
288.15 K | 813.373
293.15 K | 809.573
298.15 K | 805.762
303.15 K | 801.923
308.15 K | 798.053
313.15 K | 794.147
318.15 K | 790.231
323.15 K | 786.238

CCCCCCC [heptane] + CCCCCCN
x2 = 0
Details | mass density [kg/m3]
288.15 K | 687.954
293.15 K | 683.733
298.15 K | 679.494
303.15 K | 675.229
308.15 K | 670.941
313.15 K | 666.621
318.15 K | 662.273
323.15 K | 657.896
